Measured values from US8633242B2, “Benzylidene indanones and processes for preparation and use thereof” (Council of Scientific and Industrial Research, priority 2011, dated 2014).

Columns and labels:
[1] = system: MCF-7 (Breast cancer); assay: Sulphorhodamine B cytotoxicity assay, MCF-7; assay type: cell-based, human; details: for IC50: Homo sapiens, MCF7, SRB assay, 48 hours incubation, read-out: Human cancer cell lines IC50, MCF-7 (Breast cancer)
Method: (§1) The benzylidene analogues were evaluated by Sulphorhodamine B Assay as per reported method [Skehan et al., J. Natl. Cancer Inst. 1990, 82, 1107]. The human cancer cell lines procured from National Cancer institute, Frederick, U.S.A. were used in present study. Cells were grown in tissue culture flasks in complete growth medium (RPMI-1640 medium with 2 mM glutamine, pH 7.4 supplemented with 10% fetal bovine serum, 100 μg/ml streptomycin and 100 units/ml penicillin) in a carbon dioxide incubator (37° C., 5% CO2, 90% RH). The cells at subconfluent stage were harvested from the flask by treatment with trypsin (0.05% in PBS (pH 7.4) containing 0.02% EDTA). Cells with viability of more than 98%, as determined by trypan blue exclusion, were used for determination of cytotoxicity. The cell suspension required concentration of cells was prepared in complete growth medium. Stock solution of 2×10^−2 M of compounds were prepared in DMSO and further dilution was carried out complete growth medium containing 50 μg/ml of gentamycin to obtained working test solution of required concentration. In vitro cytotoxicity against various human cancer cell lines was determined using 96-well cell culture plates. The 100 μl of cell suspension was added to each well of the 96-well cell culture plates. The cells were allowed to grow in CO2 incubator (37° C., 5% CO2, 90% RH) for 24 hours. The test materials in complete growth medium (100 μl) were added after 24 hours incubation to the wells containing cell suspension. The plates were further incubated for 48 hours (37° C. in an atmosphere of 5% CO2 and 90% relative humidity) in a carbon dioxide incubator after addition of test material and then the cell growth was stopped by gently layering trichloroacetic acid (50% TCA, 50 μl) on top of the medium in all the wells. The plates were incubated at 4° C. for one hour to fix the cells attached to the bottom of the wells. The liquid of all the wells was gently pipetted out and discarded. The plates were washed five times with distilled water to remove TCA, growth medium low molecular weight metabolites, serum proteins etc. and air-dried. Cell growth was measured by staining with sulforhodamine B dye. The adsorbed dye was dissolved in Tris-HCl Buffer (100 μl/well, 0.01M, pH 10.4) and plates were gently stirred for 10 minutes on a mechanical stirrer. The optical density (OD) was recorded on ELISA reader at 540 nm. 5-Fluorouracil, Paclitaxel (Taxol), Mitomycin-c and Adriamycin were used as positive controls.

[2] = system: HCT (Colon); assay: Sulphorhodamine B cytotoxicity assay, HCT; assay type: cell-based, human; set-up: key to Human cancer cell lines IC50, HCT (Colon): Inactive: inactive, if IC50 > 100 μM; details: SRB assay, 48 hours incubation; for IC50: Homo sapiens, read-out: Human cancer cell lines IC50, HCT (Colon)
Method: as §1

[3] = system: A549 (Lung); assay: Sulphorhodamine B cytotoxicity assay, A549; assay type: cell-based, human; set-up: key to Human cancer cell lines IC50, A549 (Lung): Inactive: inactive, if IC50 > 100 μM; details: SRB assay, 48 hours incubation; for IC50: Homo sapiens, A549, read-out: Human cancer cell lines IC50, A549 (Lung)
Method: as §1

[4] = system: HeLa (Cervix); assay: Sulphorhodamine B cytotoxicity assay, HeLa; assay type: cell-based, human; set-up: key to Human cancer cell lines IC50, HeLa (Cervix): Inactive: inactive, if IC50 > 100 μM; details: SRB assay, 48 hours incubation; for IC50: Homo sapiens, HeLa, read-out: Human cancer cell lines IC50, HeLa (Cervix)
Method: as §1

[5] = system: THP-1 (Leukemia); assay: Sulphorhodamine B cytotoxicity assay, THP-1; assay type: cell-based, human; set-up: key to Human cancer cell lines IC50, THP-1 (Leukemia): Inactive: inactive, if IC50 > 100 μM; details: for IC50: Homo sapiens, THP-1, read-out: Human cancer cell lines IC50, THP-1 (Leukemia); for IC50 / Human cancer cell lines IC50, THP-1 (Leukemia): SRB assay, 48 hours incubation
Method: as §1

[6] = system: tubulin protein; assay: In-vitro tubulin polymerisation inhibition assay; assay type: biochemical; set-up: key to Tubulin polymerisation inhibition IC50: Inactive: inactive, if IC50 > 10 μM; details: for IC50: read-out: Tubulin polymerisation inhibition IC50
Method: The tubulin polymerization experiment was performed using ‘assay kit’ (Cytoskeleton USA) following manufacturer's protocol based on the procedure described by of Shelanski et al. (1973) and Lee et al. (1977). Briefly, tubulin protein (3 mg/mL) in tubulin polymerization buffer (80 mM PIPES, pH 6.9, 2 mM MgCl2, 0.5 mM EGTA, 1 mM GTP and 15% glycerol) was placed in pre-warmed 96-well microtiter plates at 37° C. in the presence of test compounds with variable concentrations. All samples were mixed well and polymerization was monitored kinetically at 340 nm every min for 1 h using a Spectramax plate reader. Podophyllotoxin and etoposide were used as positive controls and DMSO as negative control. The IC50 value was determined from dose-dependent analysis and is defined as the concentration that inhibits the rate of polymerization by 50%.
Podophyllotoxin and etoposide, standard tubulin polymerisation inhibitors were used as positive controls.

[7] = system: PC-3 (prostate); assay: Sulphorhodamine B cytotoxicity assay, PC-3; assay type: cell-based, human; set-up: key to Human cancer cell lines IC50, PC-3 (prostate): Inactive: inactive, if IC50 > 100 μM; details: SRB assay, 48 hours incubation; for IC50: Homo sapiens, read-out: Human cancer cell lines IC50, PC-3 (prostate)
Method: as §1

[8] = system: DU-145 (prostate); assay: Sulphorhodamine B cytotoxicity assay, DU-145; assay type: cell-based, human; set-up: key to Human cancer cell lines IC50, DU-145 (prostate): Inactive: inactive, if IC50 > 100 μM; details: SRB assay, 48 hours incubation; for IC50: Homo sapiens, DU-145, read-out: Human cancer cell lines IC50, DU-145 (prostate)
Method: as §1

[9] = tubulin 3 mg/mL, 37° C., 340 nm, 1 h

| SMILES | anticancer activity against human breast cancer cells (MCF-7), in words [1] | IC50 [1] [µM] | melting point [°C] | Human cancer cell lines IC50, HCT (Colon) [2] | IC50 [3] [µM] | IC50 [4] [µM] | activity against leukemia cell lines (THP), in words [5] | IC50 [5] [µM] | inhibition of tubulin polymerisation, in words [6] | IC50 [6, 9] [µM] | IC50 [7] [µM] | IC50 [8] [µM] | IC50 [2] [µM] | Human cancer cell lines IC50, HeLa (Cervix) [4] | Human cancer cell lines IC50, THP-1 (Leukemia) [5] | Human cancer cell lines IC50, PC-3 (prostate) [7] | Human cancer cell lines IC50, DU-145 (prostate) [8] | Tubulin polymerisation inhibition IC50 [6, 9] | Human cancer cell lines IC50, A549 (Lung) [3] |
| --- | --- | --- | --- | --- | --- | --- | --- | --- | --- | --- | --- | --- | --- | --- | --- | --- | --- | --- | --- |
| COc1cc(C2/C(=C/c3ccc(F)cc3)C(=O)c3cc(OC)c(OC)c(OC)c32)cc(OC)c1OC (stereo not drawn) [Compound 18, 2-(4″-fluorobenzylidene), 3-(3′,4′,5′-trimethoxyphenyl)-4,5,6-trimethoxy indan-1-one] | potent anticancer activity | 0.68 | 156 to 158 | Inactive | 26.9 | 66.5 | potent activity | 2.88 | strong inhibition | 0.73 | 38.6 | 54.1 |  |  |  |  |  |  |  |
| COc1ccc(/C=C2\C(=O)c3cc(OC)c(OC)c(OC)c3C2c2cc(OC)c(OC)c(OC)c2)c(OC)c1 (stereo not drawn) [Compound 21, 2-(2″,4″-dimethoxybenzylidene), 3-(3′,4′,5′-trimethoxyphenyl)-4,5,6-trimethoxy indan-1-one] | potent anticancer activity | 1 | 191 to 192 |  | 71.6 |  |  |  | strong inhibition | 3.04 | 71.7 | 2.04 | 11.1 | Inactive | Inactive |  |  |  |  |
| COc1ccc(/C=C2\C(=O)c3cc(OC)c(OC)c(OC)c3C2c2cc(OC)c(OC)c(OC)c2)cc1 (stereo not drawn) [Compound 10, 2-(4″-methoxybenzylidene),3(3′,4′,5′-trimethoxyphenyl)-4,5,6-trimethoxy indan-1-one] | potent anticancer activity | 3.18 | 188 to 190 |  | 13.4 | 21 | potent activity | 0.88 | strong inhibition | 4.67 | 65.7 | 44.9 | 18.6 |  |  |  |  |  |  |
| COc1cc(/C=C2\C(=O)c3cc(OC)c(OC)c(OC)c3C2c2cc(OC)c(OC)c(OC)c2)cc(OC)c1OC (stereo not drawn) [Compound 9, 2-(3″,4″,5″-trimethoxybenzylidene), 3-(3′,4′,5′-trimethoxyphenyl)-4,5,6-trimethoxy indan-1-one] |  | 38.9 | 118 to 120 |  | 67.6 | 82.3 |  | 64.9 | strong inhibition | 4.62 |  |  | 39.7 |  |  | Inactive | Inactive |  |  |
| COc1cc(C2/C(=C/c3ccc(OC)c(OC)c3OC)C(=O)c3cc(OC)c(OC)c(OC)c32)cc(OC)c1OC (stereo not drawn) [Compound 15, 2-(2″,3″,4″-trimethoxybenzylidene), 3-(3′,4′,5′-trimethoxyphenyl)-4,5,6-trimethoxy, indan-1-one] | potent anticancer activity | 8.88 | 163 to 165 |  | 93 |  |  |  |  |  | 85 |  | 79.6 | Inactive | Inactive |  | Inactive | Inactive |  |
| COc1cc(OC)c(OC)cc1/C=C1\C(=O)c2cc(OC)c(OC)c(OC)c2C1c1cc(OC)c(OC)c(OC)c1 (stereo not drawn) [Compound 16, 2-(2″,4″,5″-trimethoxybenzylidene), 3-(3′,4′,5′-trimethoxyphenyl)-4,5,6-trimethoxy indan-1-one] |  | 56.5 | 203 to 205 | Inactive | 87.2 |  |  | 81.5 | strong inhibition | 4.21 | 64.9 |  |  | Inactive |  |  | Inactive |  |  |
| COc1ccc(/C=C2\C(=O)c3cc(OC)c(OC)c(OC)c3C2c2cc(OC)c(OC)c(OC)c2)cc1OC (stereo not drawn) [Compound 13, 2-(3″,4″-dimethoxybenzylidene), 3-(3′,4′,5′-trimethoxyphenyl)-4,5,6-trimethoxy indan-1-one] |  | 80.8 | 179 to 180 | Inactive |  |  |  | 62 | strong inhibition | 0.62 |  |  |  | Inactive |  | Inactive | Inactive |  | Inactive |
